Measured values taken from patent publication US11382883B2, “Intermediate metabolism products to potentiate aminoglycoside antibiotics in bacterial infections” (TRUSTEES OF BOSTON UNIVERSITY, priority 2013, dated 2022).
Entries after “also recorded” stand apart in the source; their conditions may differ.

How the values were obtained:
P. aeruginosa persisters = assay: Persister cell eradication: carbon sources plus tobramycin, survival by c.f.u. counting; format: cell-based, Pseudomonas aeruginosa; settings: for potentiation of tobramycin killing of persisters by carbon source (efficiency of tested metabolites): tobramycin 40 mg/l, carbon sources normalized to 60 mM carbon, M9 minimal media, ciprofloxacin-selected persisters; for potentiation of antibiotic efficacy / sensitization to aminoglycoside antibiotics: P. aeruginosa cells in various reduced metabolic states, in conjunction with aminoglycosides
[1] = system: P. aeruginosa stationary phase cells; assay: Stationary phase cells eradication: carbon sources plus tobramycin, survival by c.f.u. counting; format: cell-based, Pseudomonas aeruginosa
Description: Cells from frozen stock were plated overnight at 37° C., following which a single colony forming unit (CFU) was grown in Luria-Bertani (LB) broth at 300 r.p.m. and 80% humidity to an optical density at 600 nm (OD600) of 0.3. Cells were then diluted 1:1,000 in 25 ml LB and grown for 16 h at 37° C., 300 r.p.m. and 80% humidity in 250 ml flasks. Cells were then washed (Spin 5000 rpm (Thermofisher centrifuge) for 15 mins. Samples were then washed with 20 ml of 1× filtered PBS (again spin 5000 rpm for 15 mins) and re-suspended in M9 minimal media. Carbon sources and antibiotics (tobramycin 40 mg/l) were added and samples were incubated at 37° C., 300 r.p.m. and 80% humidity At specified time points, 10-μl aliquots of cells were removed and washed with PBS, serially diluted and spot-plated onto LB agar plates to determine colony-forming units per ml (c.f.u. ml−1). The concentration of carbon sources were normalized to deliver 60 mM carbon (for example 10 mM glucose, 15 mM fumarate, 20 mM pyruvate etc.). Survivors were enumerated by plating 10 ul aliquots with serial dilutions taken from 1 ml spun down and PBS washed (remaining AB). […] Survival was determined by dividing the c.f.u. ml−1 of a sample at each time point by the initial c.f.u. ml−1 for that sample.

[2] = i.v. administration; cited from earlier work

Which “potentiation of tobramycin killing of persisters by carbon source (efficiency of tested metabolites)” value (P. aeruginosa persisters) does the source give for `O=C(CO)[C@@H](O)[C@H](O)[C@H](O)CO` [Fructose, fructose] here?
Its value is “not efficient”.

With `OC[C@@H](O)[C@@H](O)[C@H](O)[C@H](O)CO` [Mannitol, mannitol] as the compound, how does the “potentiation of tobramycin killing of persisters by carbon source (efficiency of tested metabolites)” value (P. aeruginosa persisters) read?
Its value is “not efficient”.

What does the source list for `O=C(O)/C=C/C(=O)O` [fumarate]?
killing with incremental doses of fumarate for a given dose of tobramycin ([1]; FIG. 2, tobramycin 40 mg/L): increased killing; killing of P. aeruginosa in stationary phase by tobramycin ([1]; FIGS. 2A-2B): enables killing; potentiation of antibiotic efficacy / sensitization to aminoglycoside antibiotics (P. aeruginosa persisters): very strong results; potentiation of tobramycin killing of persisters by carbon source (efficiency of tested metabolites) (P. aeruginosa persisters): most potent

With `O=C(O)[C@H](O)[C@@H](O)[C@H](O)[C@H](O)CO` [gluconate] as the compound, how does the “potentiation of tobramycin killing of persisters by carbon source (efficiency of tested metabolites)” value (P. aeruginosa persisters) read?
The value was “variable levels of efficiency”.

For `CCC(=O)O` [propionate], which “potentiation of antibiotic efficacy / sensitization to aminoglycoside antibiotics” value (P. aeruginosa persisters) is on record?
Its value is “sensitize the bacterium to aminoglycoside antibiotics”.

And the “potentiation of tobramycin killing of persisters by carbon source (efficiency of tested metabolites)” value (P. aeruginosa persisters)?
Its value is “recapitulated this to some effect”.

What does the source list for `O=C(O)CCC(=O)O` [succinate]?
potentiation of antibiotic efficacy / sensitization to aminoglycoside antibiotics (P. aeruginosa persisters): very strong results; potentiation of tobramycin killing of persisters by carbon source (efficiency of tested metabolites) (P. aeruginosa persisters): most potent

For `NC[C@H]1O[C@H](O[C@H]2[C@H](O)[C@@H](O[C@H]3O[C@H](CO)[C@@H](O)[C@H](N)[C@H]3O)[C@H](N)C[C@@H]2N)[C@H](N)C[C@@H]1O` [tobramycin, reference compound], which “typical peak serum concentration” value [2] is on record?
Its value is 40 mg/L.

And the “killing with incremental doses of tobramycin for a given fumarate” value ([1]; FIG. 2, administered with fumarate)?
The value was “increased killing; also recorded: higher killing”.
